ChEMBL document CHEMBL4196027, “Structure-based discovery of cytotoxic dimeric tetrahydroxanthones as potential topoisomerase I inhibitors from a marine-derived fungus” (Eur J Med Chem, 2018)
pIC50: −log10 of the molar value.

Legend:
MGC-803 [1] = experiment: Cell cycle arrest in human MGC803 cells assessed as accumulation at S phase at 6.25 uM after 24 hrs by propidium iodide staining based flow cytometry (reference value: 31.17%); format: functional
HEK293 = experiment: Cytotoxicity against HEK293 cells assessed as reduction in cell proliferation after 48 hrs by MTT assay; format: cell-based; details: Homo sapiens, HEK293, 48 h
MGC-803 [2] = experiment: Cell cycle arrest in human MGC803 cells assessed as accumulation at G0/G1 phase at 25 uM after 24 hrs by propidium iodide staining based flow cytometry (reference value: 59.68%); format: functional
MGC-803 [3] = experiment: Induction of apoptosis in human MGC803 cells assessed as early apoptotic cells at 6.25 uM after 24 hrs by Annexin V-FITC/propidium iodide staining based flow cytometry (reference value: 0.56%); format: functional
MGC-803 [4] = experiment: Cell cycle arrest in human MGC803 cells assessed as accumulation at G0/G1 phase at 6.25 uM after 24 hrs by propidium iodide staining based flow cytometry (reference value: 59.68%); format: functional
NCI-H1975 = experiment: Cytotoxicity against human NCI-H1975 cells assessed as reduction in cell proliferation after 48 hrs by MTT assay; format: functional, cell-based; details: Homo sapiens, NCI-H1975, 48 h
MGC-803 [5] = experiment: Induction of apoptosis in human MGC803 cells assessed as early apoptotic cells at 12.5 uM after 24 hrs by Annexin V-FITC/propidium iodide staining based flow cytometry (reference value: 0.56%); format: functional
HCT-116 = experiment: Cytotoxicity against human HCT116 cells assessed as reduction in cell proliferation after 48 hrs by MTT assay; format: functional, cell-based; details: Homo sapiens, HCT-116, 48 h
MGC-803 [6] = experiment: Cell cycle arrest in human MGC803 cells assessed as accumulation at G2/M phase at 6.25 uM after 24 hrs by propidium iodide staining based flow cytometry (reference value: 9.15%); format: functional
MGC-803 [7] = experiment: Induction of apoptosis in human MGC803 cells assessed as late apoptotic cells at 6.25 uM after 24 hrs by Annexin V-FITC/propidium iodide staining based flow cytometry (reference value: 0.12%); format: functional
MGC-803 [8] = experiment: Induction of apoptosis in human MGC803 cells assessed as late apoptotic cells at 25 uM after 24 hrs by Annexin V-FITC/propidium iodide staining based flow cytometry (reference value: 0.12%); format: functional
MGC-803 [9] = experiment: Cytotoxicity against human MGC803 cells assessed as reduction in cell proliferation after 48 hrs by MTT assay; format: functional, cell-based; details: Homo sapiens, MGC-803, 48 h
MGC-803 [10] = experiment: Induction of apoptosis in human MGC803 cells assessed as necrotic cells at 6.25 uM after 24 hrs by Annexin V-FITC/propidium iodide staining based flow cytometry (reference value: 0.92%); format: functional
MGC-803 [11] = experiment: Cell cycle arrest in human MGC803 cells assessed as accumulation at S phase at 12.5 uM after 24 hrs by propidium iodide staining based flow cytometry (reference value: 31.17%); format: functional
MGC-803 [12] = experiment: Induction of apoptosis in human MGC803 cells assessed as early apoptotic cells at 25 uM after 24 hrs by Annexin V-FITC/propidium iodide staining based flow cytometry (reference value: 0.56%); format: functional
MGC-803 [13] = experiment: Induction of apoptosis in human MGC803 cells assessed as necrotic cells at 25 uM after 24 hrs by Annexin V-FITC/propidium iodide staining based flow cytometry (reference value: 0.92%); format: functional
MGC-803 [14] = experiment: Cell cycle arrest in human MGC803 cells assessed as accumulation at G0/G1 phase at 12.5 uM after 24 hrs by propidium iodide staining based flow cytometry (reference value: 59.68%); format: functional
MGC-803 [15] = experiment: Cell cycle arrest in human MGC803 cells assessed as accumulation at G2/M phase at 25 uM after 24 hrs by propidium iodide staining based flow cytometry (reference value: 9.15%); format: functional
MGC-803 [16] = experiment: Induction of apoptosis in human MGC803 cells assessed as late apoptotic cells at 12.5 uM after 24 hrs by Annexin V-FITC/propidium iodide staining based flow cytometry (reference value: 0.12%); format: functional
MGC-803 [17] = experiment: Cell cycle arrest in human MGC803 cells assessed as accumulation at S phase at 25 uM after 24 hrs by propidium iodide staining based flow cytometry (reference value: 31.17%); format: functional
MGC-803 [18] = experiment: Induction of apoptosis in human MGC803 cells assessed as necrotic cells at 12.5 uM after 24 hrs by Annexin V-FITC/propidium iodide staining based flow cytometry (reference value: 0.92%); format: functional
[19] = Cytotoxicity against human HO8910 cells assessed as reduction in cell proliferation after 48 hrs by MTT assay; format: functional, cell-based; details: Homo sapiens, HO-8910, 48 h
K562 = experiment: Cytotoxicity against human K562 cells assessed as reduction in cell proliferation after 48 hrs by MTT assay; format: functional, cell-based; details: Homo sapiens, K562, 48 h
A549 = experiment: Cytotoxicity against human A549 cells assessed as reduction in cell proliferation after 48 hrs by MTT assay; format: functional, cell-based; details: Homo sapiens, A549, 48 h
MGC-803 [20] = experiment: Induction of necrosis in human MGC803 cells at 6.25 uM after 48 hrs by Hoechst 33342/propidium iodide staining based flow cytometry (reference value: 3.73%); format: functional
MGC-803 [21] = experiment: Cell cycle arrest in human MGC803 cells assessed as accumulation at G2/M phase at 12.5 uM after 24 hrs by propidium iodide staining based flow cytometry (reference value: 9.15%); format: functional
MGC-803 [22] = experiment: Induction of necrosis in human MGC803 cells at 12.5 uM after 48 hrs by Hoechst 33342/propidium iodide staining based flow cytometry (reference value: 3.73%); format: functional
HL-60 = experiment: Cytotoxicity against human HL60 cells assessed as reduction in cell proliferation after 48 hrs by MTT assay; format: functional, cell-based; details: Homo sapiens, HL-60, 48 h
MGC-803 [23] = experiment: Induction of necrosis in human MGC803 cells at 25 uM after 48 hrs by Hoechst 33342/propidium iodide staining based flow cytometry (reference value: 3.73%); format: functional

With `COC(=O)[C@@]12Oc3cc(C)c(-c4ccc5c(c4O)C(=O)C4=C(O)C[C@H](C)[C@@H](O)[C@]4(C(=O)OC)O5)c(O)c3C(=O)C1=C(O)CC[C@H]2O` (stereo in doubt; 1) the Activity (MGC-803 [1]) was 31.02%, the pIC50 (HEK293) was under 4.30 and the Activity (MGC-803 [2]) was 29.67%. For the same molecule, the Activity (MGC-803 [3]) was 0.26%, the Activity (MGC-803 [4]) was 33.65% and the pIC50 (NCI-H1975) was 5.01. The Activity (MGC-803 [5]) was 0.42%, the pIC50 (HCT-116) was 4.79 and the Activity (MGC-803 [6]) was 35.33%. The Activity (MGC-803 [7]) was 0.17%, the Activity (MGC-803 [8]) was 0.59% and the pIC50 (MGC-803 [9]) was 5.34. It also gave an Activity (MGC-803 [10]) of 1.88%, an Activity (MGC-803 [11]) of 36.98% and an Activity (MGC-803 [12]) of 0.26%. It also gave an Activity (MGC-803 [13]) of 4.06%, an Activity (MGC-803 [14]) of 25.7% and an Activity (MGC-803 [15]) of 47.43%. For the same molecule, the Activity (MGC-803 [16]) was 0.56%, the Activity (MGC-803 [17]) was 22.9% and the Activity (MGC-803 [18]) was 1.46%. It also gave a pIC50 [19] of 5.02, a pIC50 (K562) of 4.68 and a pIC50 (A549) of 4.75. It also gave an Activity (MGC-803 [20]) of 6.97%, an Activity (MGC-803 [21]) of 37.32% and an Activity (MGC-803 [22]) of 19.29%. For the same molecule, the pIC50 (HL-60) was 4.87 and the Activity (MGC-803 [23]) was 31.33%.
